# Experimental data from patent US10981879B2, “Thioether triazolopyridine and triazolopyrimidine inhibitors of myeloperoxidase” (BRISTOL-MYERS SQUIBB COMPANY, priority 2014, dated 2021).
# Target: myeloperoxidase (MPO) (Homo sapiens (Human), UniProt P05164)
# Assay: MPO chlorination assay (APF)
# Format: biochemical
# Settings: MPO chlorination assay, ranges given; read-out: MPO chlorination assay IC50
# Method: MPO chlorination activity was measured in 100 mM KPi (pH 7.4) by utilizing the non-fluorescent reagent Aminophenyl fluorescein (APF, Invitrogen catalog #A36003). APF is cleaved by (—OCl) to yield the fluorescent compound fluorescein. Reactions were carried out in 50 μL total volume by adding a 25 μL mixture of 200 pM myeloperoxidase and 120 mM NaCl to 100 nL inhibitor in 100% DMSO in a 384 well, non-binding surface clear bottom plate (CORNING® #3655). Enzyme, inhibitor, and chloride were preincubated for ten minutes at rt.
# After the ten minute preincubation, 25 μL of an APF mixture containing […], 120 mM NaCl and 10 μM H2O2 was added to the plate using the internal dispensing system of a Hammatsu FDSS 6000. Kinetic determinations were carried out immediately on the FDSS 6000 (3 minute kinetic read, 1 read every second, ex: 485 nm, em: 535 nm). IC50 values for inhibitors were calculated by taking the slope of the linear portion of the kinetic measurement (20 seconds to ˜80-120 secs). […]
# [formula] where A=minimal Y value (activity level of inhibited sample), B=maximal Y value (activity level of uninhibited sample), C=Log IC50, D=Hill Slope, x=concentration of inhibitor. EPX Bromination Assay
# Sequence of myeloperoxidase (MPO) (P05164 49-745): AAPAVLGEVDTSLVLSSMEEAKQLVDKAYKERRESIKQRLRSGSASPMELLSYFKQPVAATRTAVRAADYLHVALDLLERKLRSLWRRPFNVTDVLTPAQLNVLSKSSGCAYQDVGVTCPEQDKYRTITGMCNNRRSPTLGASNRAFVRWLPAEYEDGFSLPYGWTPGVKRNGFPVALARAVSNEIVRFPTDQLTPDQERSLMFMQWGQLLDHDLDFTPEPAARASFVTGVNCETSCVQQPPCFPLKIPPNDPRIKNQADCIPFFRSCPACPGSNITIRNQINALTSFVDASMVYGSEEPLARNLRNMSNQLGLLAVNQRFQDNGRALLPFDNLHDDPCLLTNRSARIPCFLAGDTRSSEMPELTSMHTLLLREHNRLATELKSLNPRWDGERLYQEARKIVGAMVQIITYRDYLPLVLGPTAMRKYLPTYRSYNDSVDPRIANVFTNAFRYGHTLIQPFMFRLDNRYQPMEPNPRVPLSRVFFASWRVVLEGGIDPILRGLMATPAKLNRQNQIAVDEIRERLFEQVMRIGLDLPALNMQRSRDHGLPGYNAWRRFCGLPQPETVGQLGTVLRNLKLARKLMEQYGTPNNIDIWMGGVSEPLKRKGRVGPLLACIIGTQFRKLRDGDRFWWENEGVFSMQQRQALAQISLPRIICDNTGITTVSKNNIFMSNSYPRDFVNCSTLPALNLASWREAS
row,IC50 [nM],Structure (SMILES)
1,60 to 200,"COC(=O)C(Sc1cc(N)nc2[nH]nnc12)c1ccccc1Cl (centres unmarked) [Example 50, methyl 2-((5-amino-3H-[1,2,3]triazolo[4,5-b]pyridin-7-yl)thio)-2-(2-chlorophenyl)acetate]"
2,60 to 200,"COC(=O)c1ccc(F)c(CSc2cc(N)nc3[nH]nnc23)c1 [Example 52, methyl 3-(((5-amino-3H-[1,2,3]triazolo[4,5-b]pyridin-7-yl)thio)methyl)-4-fluorobenzoate]"
3,60 to 200,"CS(=O)(=O)c1ccc(F)cc1CSc1cc(N)nc2[nH]nnc12 [Example 53, 7-((5-fluoro-2-(methylsulfonyl)benzyl)thio)-3H-[1,2,3]triazolo[4,5-b]pyridin-5-amine]"
4,60 to 200,"CC(Sc1cc(N)nc2[nH]nnc12)c1ccccc1S(C)(=O)=O (centres unmarked) [Example 54, 7-((1-(2-(methylsulfonyl)phenyl)ethyl)thio)-3H-[1,2,3]triazolo[4,5-b]pyridin-5-amine]"
5,200 to 1000,"CC1(NC(=O)c2ccc(F)c(CSc3cc(N)nc4[nH]nnc34)c2)CC1 [Example 55, 3-(((5-amino-3H-[1,2,3]triazolo[4,5-b]pyridin-7-yl)thio)methyl)-4-fluoro-N-(1-methylcyclopropyl) benzamide]"
6,200 to 1000,"Cc1cc(CSc2cc(N)nc3[nH]nnc23)n(C)n1 [Example 58, 7-(((1,3-dimethyl-1H-pyrazol-5-yl)methyl)thio)-3H-[1,2,3]triazolo[4,5-b] pyridin-5-amine]"
7,60 to 200,"Nc1cc(SCc2cc(Cl)ccc2S(=O)(=O)Cc2ccccc2)c2nn[nH]c2n1 [Example 61, 7-((2-(benzylsulfonyl)-5-chlorobenzyl)thio)-3H-[1,2,3]triazolo[4,5-b]pyridin-5-amine]"
8,60 to 200,"Nc1cc(SCc2nn(Cc3ccccc3)c3ccccc23)c2nn[nH]c2n1 [Example 62, 7-(((1-benzyl-1H-indazol-3-yl)methyl)thio)-3H-[1,2,3] triazolo[4,5-b]pyridin-5-amine]"
9,60 to 200,"CCc1nn(-c2ccccc2)nc1CSc1cc(N)nc2[nH]nnc12 [Example 63, 7-(((5-ethyl-2-phenyl-2H-1,2,3-triazol-4-yl)methyl)thio)-3H-[1,2,3]triazolo[4,5-b]pyridin-5-amine]"
10,≤ 60,"Nc1cc(SCc2c(Cl)cccc2S(N)(=O)=O)c2nn[nH]c2n1 [Example 64, 2-(((5-amino-3H-[1,2,3]triazolo[4,5-b]pyridin-7-yl)thio)methyl)-3-chlorobenzenesulfonamide]"
11,60 to 200,"Cc1nn(-c2ccccc2)nc1CSc1cc(N)nc2[nH]nnc12 [Example 65, 7-(((5-methyl-2-phenyl-2H-1,2,3-triazol-4-yl)methyl)thio)-3H-[1,2,3]triazolo[4,5-b]pyridin-5-amine]"
12,200 to 1000,"Cc1nn(-c2cccc(F)c2)nc1CSc1cc(N)nc2[nH]nnc12 [Example 67, 7-(((2-(3-fluorophenyl)-5-methyl-2H-1,2,3-triazol-4-yl)methyl)thio)-3H-[1,2,3] triazolo[4,5-b]pyridin-5-amine]"
13,200 to 1000,"COc1cccc(-n2nc(C)c(CSc3cc(N)nc4[nH]nnc34)n2)c1 [Example 69, 7-(((2-(3-methoxyphenyl)-5-methyl-2H-1,2,3-triazol-4-yl)methyl)thio)-3H-[1,2,3] triazolo[4,5-b]pyridin-5-amine]"
14,200 to 1000,"Cn1nc(-c2ccccc2)c(CSc2cc(N)nc3[nH]nnc23)c1Cl [Example 71, 7-(((5-chloro-1-methyl-3-phenyl-1H-pyrazol-4-yl)methyl)thio)-3H-[1,2,3] triazolo[4,5-b]pyridin-5-amine]"
15,60 to 200,"N#Cc1ccc(Cl)cc1CSc1cc(N)nc2[nH]nnc12 [Example 73, 2-(((5-amino-3H-[1,2,3]triazolo[4,5-b]pyridin-7-yl)thio)methyl)-4-chlorobenzonitrile]"
16,60 to 200,"N#Cc1c(Cl)cccc1CSc1cc(N)nc2[nH]nnc12 [Example 75, 2-(((5-amino-3H-[1,2,3]triazolo[4,5-b]pyridin-7-yl)thio)methyl)-6-chlorobenzonitrile]"
17,60 to 200,"Cc1nn(Cc2ccccc2)c(Cl)c1CSc1cc(N)nc2[nH]nnc12 [Example 76, 7-(((1-benzyl-5-chloro-3-methyl-1H-pyrazol-4-yl)methyl)thio)-3H-[1,2,3] triazolo[4,5-b]pyridin-5-amine]"
18,60 to 200,"Cc1nn(CC2CC2)c(C)c1CSc1cc(N)nc2[nH]nnc12 [Example 80, 7-(((1-(cyclopropylmethyl)-3,5-dimethyl-1H-pyrazol-4-yl)methyl)thio)-3H-[1,2,3] triazolo[4,5-b]pyridin-5-amine]"
19,60 to 200,"Cc1nn(C2CC2)c(C)c1CSc1cc(N)nc2[nH]nnc12 [Example 81, 7-(((1-cyclopropyl-3,5-dimethyl-1H-pyrazol-4-yl)methyl)thio)-3H-[1,2,3] triazolo[4,5-b]pyridin-5-amine]"
20,60 to 200,"Cc1nn(C2CCC2)c(C)c1CSc1cc(N)nc2[nH]nnc12 [Example 82, 7-(((1-cyclobutyl-3,5-dimethyl-1H-pyrazol-4-yl)methyl)thio)-3H-[1,2,3] triazolo[4,5-b]pyridin-5-amine]"
21,60 to 200,"N#Cc1cccc(C2CC2)c1CSc1cc(N)nc2[nH]nnc12 [Example 89, 2-(((5-amino-3H-[1,2,3]triazolo[4,5-b]pyridin-7-yl)thio)methyl)-3-cyclopropylbenzonitrile]"
22,60 to 200,"Nc1cc(SCc2ccccc2-c2ccccn2)c2nn[nH]c2n1 [Example 92, 7-((2-(pyridin-2-yl)benzyl)thio)-3H-[1,2,3]triazolo[4,5-b]pyridin-5-amine]"
23,60 to 200,"Nc1cc(SCc2ccccc2CN2CCOCC2)c2nn[nH]c2n1 [Example 94, 7-((2-(morpholinomethyl)benzyl)thio)-3H-[1,2,3] triazolo[4,5-b]pyridin-5-amine]"
24,60 to 200,"Nc1cc(SCc2ccccc2CN2CCC2)c2nn[nH]c2n1 [Example 95, 7-((2-(azetidin-1-ylmethyl)benzyl)thio)-3H-[1,2,3] triazolo[4,5-b]pyridin-5-amine]"
25,60 to 200,"CN(C)Cc1ccccc1CSc1cc(N)nc2[nH]nnc12 [Example 96, 7-((2-((dimethylamino)methyl)benzyl)thio)-3H-[1,2,3]triazolo[4,5-b]pyridin-5-amine]"
26,60 to 200,"Nc1cc(SCc2ccccc2CN2CCCCC2)c2nn[nH]c2n1 [Example 97, 7-((2-(piperidin-1-ylmethyl)benzyl)thio)-3H-[1,2,3] triazolo[4,5-b]pyridin-5-amine]"
27,60 to 200,"CN(C)Cc1ccc(F)c(CSc2cc(N)nc3[nH]nnc23)c1 [Example 99, 7-((5-((dimethylamino)methyl)-2-fluorobenzyl)thio)-3H-[1,2,3]triazolo[4,5-b]pyridin-5-amine]"
28,60 to 200,"Cn1nc(C2CC2)cc1CSc1cc(N)nc2[nH]nnc12 [Example 100, 7-(((3-cyclopropyl-1-methyl-1H-pyrazol-5-yl)methyl)thio)-3H-[1,2,3]triazolo[4,5-b]pyridin-5-amine]"
29,60 to 200,"Nc1cc(SCc2cc(-c3ccccc3)on2)c2nn[nH]c2n1 [Example 101, 7-(((5-phenylisoxazol-3-yl)methyl)thio)-3H-[1,2,3] triazolo[4,5-b]pyridin-5-amine]"
30,60 to 200,"CS(=O)(=O)c1cccc(Cl)c1CSc1cc(N)nc2[nH]nnc12 [Example 102, 7-((2-chloro-6-(methylsulfonyl)benzyl)thio)-3H-[1,2,3]triazolo[4,5-b]pyridin-5-amine]"

row,Structure (SMILES),IC50 [nM]
1,"N#Cc1cc(F)ccc1CSc1cc(N)nc2[nH]nnc12 [Example 56, 2-(((5-amino-3H-[1,2,3]triazolo[4,5-b]pyridin-7-yl)thio)methyl)-5-fluorobenzonitrile]",≤ 60
2,"Cc1nn(C)c(Cl)c1CSc1cc(N)nc2[nH]nnc12 [Example 60, 7-(((5-chloro-1,3-dimethyl-1H-pyrazol-4-yl)methyl)thio)-3H-[1,2,3]triazolo[4,5-b]pyridin-5-amine]",≤ 60
3,"N#Cc1cccc(F)c1CSc1cc(N)nc2[nH]nnc12 [Example 68, 2-(((5-amino-3H-[1,2,3]triazolo[4,5-b]pyridin-7-yl)thio)methyl)-3-fluorobenzonitrile]",≤ 60
4,"N#Cc1cc(Cl)ccc1CSc1cc(N)nc2[nH]nnc12 [Example 74, 2-(((5-amino-3H-[1,2,3]triazolo[4,5-b]pyridin-7-yl)thio)methyl)-5-chlorobenzonitrile]",≤ 60
5,"Cn1nc(C(F)(F)F)c(CSc2cc(N)nc3[nH]nnc23)c1Cl [Example 78, 7-(((5-chloro-1-methyl-3-(trifluoromethyl)-1H-pyrazol-4-yl)methyl)thio)-3H-[1,2,3]triazolo[4,5-b] pyridin-5-amine]",≤ 60
6,"N#Cc1ccc(C2CC2)cc1CSc1cc(N)nc2[nH]nnc12 [Example 87, 2-(((5-amino-3H-[1,2,3]triazolo[4,5-b]pyridin-7-yl)thio)methyl)-4-cyclopropylbenzonitrile]",≤ 60
7,"N#Cc1cccc(CSc2cc(N)nc3[nH]nnc23)c1 [Example 91, 3-(((5-amino-3H-[1,2,3]triazolo[4,5-b]pyridin-7-yl)thio)methyl)benzonitrile]",≤ 60
8,"CN(C)Cc1cccc(CSc2cc(N)nc3[nH]nnc23)c1 [Example 93, 7-((3-((dimethylamino)methyl)benzyl)thio)-3H-[1,2,3]triazolo[4,5-b]pyridin-5-amine]",≤ 60
